Measured values: ChEMBL document CHEMBL1132189, “Three-dimensional quantitative structure-activity relationship analyses using comparative molecular field analysis and comparative molecular similarity indices analysis to elucidate selectivity differences of inhibitors binding to trypsin, thrombin, and factor Xa” (J Med Chem, 1999)

How the values were obtained:
[1] = target: Coagulation factor X (Homo sapiens, UniProt P00742); assay: Binding affinity towards Coagulation factor Xa
[2] = target: Prothrombin (Bos taurus, UniProt P00735); assay: Binding affinity towards thrombin
[3] = target: T1, Serine protease 1 (Bos taurus, UniProt P00760); assay: Binding affinity towards trypsin
T1 sequence (P00760 whole entry): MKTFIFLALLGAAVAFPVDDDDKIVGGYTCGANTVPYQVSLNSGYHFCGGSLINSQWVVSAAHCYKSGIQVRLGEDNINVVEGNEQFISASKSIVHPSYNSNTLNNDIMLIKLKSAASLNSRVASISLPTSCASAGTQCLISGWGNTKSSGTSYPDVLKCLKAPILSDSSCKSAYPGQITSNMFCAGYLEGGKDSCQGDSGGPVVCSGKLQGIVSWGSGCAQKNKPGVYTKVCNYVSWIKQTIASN

Chain of Coagulation factor X (P00742 41-179 limits assumed): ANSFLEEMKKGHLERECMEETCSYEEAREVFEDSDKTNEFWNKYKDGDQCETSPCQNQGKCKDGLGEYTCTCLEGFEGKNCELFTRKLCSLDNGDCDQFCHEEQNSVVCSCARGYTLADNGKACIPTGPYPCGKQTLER
Chain of Coagulation factor X (P00742 235-488 limits assumed): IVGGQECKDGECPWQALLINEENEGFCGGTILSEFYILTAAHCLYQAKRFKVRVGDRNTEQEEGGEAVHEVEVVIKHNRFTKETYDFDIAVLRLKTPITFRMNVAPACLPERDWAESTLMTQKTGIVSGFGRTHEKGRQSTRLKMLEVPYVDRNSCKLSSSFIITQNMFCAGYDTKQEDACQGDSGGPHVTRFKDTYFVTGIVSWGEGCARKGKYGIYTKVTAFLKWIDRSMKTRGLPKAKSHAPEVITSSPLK

N=C(N)c1cccc(C[C@H](NS(=O)(=O)c2ccc3ccccc3c2)C(=O)N2CCNCC2)c1 was tested, and the Ki [1] was 21 µM, the Ki [2] was 0.5 µM and the Ki [3] was 0.22 µM.

In the case of N=C(N)c1cccc(C[C@H](NS(=O)(=O)c2ccc3ccccc3c2)C(=O)N2Cc3ccccc3C[C@@H]2C(=O)O)c1, the Ki [1] is reported as 41.5 µM, the Ki [2] is reported as 0.018 µM and the Ki [3] is reported as 0.13 µM.

Molecule N=C(N)c1cccc(C[C@H](NS(=O)(=O)c2ccc3ccccc3c2)C(=O)N2Cc3ccccc3C=C2C(=O)O)c1 has a Ki [1] of 54 µM, a Ki [2] of 0.12 µM and a Ki [3] of 4.5 µM.

With N=C(N)c1cccc(C[C@H](NS(=O)(=O)c2ccc3ccccc3c2)C(=O)N2CCC[C@H](C(=O)O)C2)c1 the Ki [1] was […], the Ki [2] was 1.1 µM and the Ki [3] was 0.437 µM.

With Cc1c(C)c(S(=O)(=O)N[C@@H](Cc2cccc(C(=N)N)c2)C(=O)N2CCN(S(C)(=O)=O)CC2)c(C)c2c1OC(C)(C)CC2 the Ki [1] was 74.1 µM, the Ki [2] was 0.00741 µM and the Ki [3] was 0.76 µM.

CNC(=O)[C@H]1CCCN(C(=O)[C@H](Cc2cccc(C(=N)N)c2)NS(=O)(=O)c2ccc3ccccc3c2)C1 gave a Ki [1] of 33.1 µM, a Ki [2] of 0.26 µM and a Ki [3] of 0.31 µM.

Cc1ccc(S(=O)(=O)N[C@@H](Cc2cccc(C(=N)N)c2)C(=O)N2CCC(C)CC2)cc1 was tested, and the Ki [1] was 71 µM, the Ki [2] was 0.026 µM and the Ki [3] was 0.52 µM.

With N=C(N)c1cccc(C[C@H](NS(=O)(=O)c2ccc3ccccc3c2)C(=O)N2CCOCC2)c1 the Ki [1] was 16 µM, the Ki [2] was 0.042 µM and the Ki [3] was 0.21 µM.

Molecule N=C(N)c1cccc(C[C@H](NS(=O)(=O)c2ccc3ccccc3c2)C(=O)N2CC[C@@H]3CCCC[C@H]32)c1 has a Ki [1] of 13 µM, a Ki [2] of 0.32 µM and a Ki [3] of 1.2 µM.

Molecule COC(=O)[C@H](Cc1cccc(C(=N)N)c1)NS(=O)(=O)c1ccc2ccccc2c1 has a Ki [1] of 2.51 µM, a Ki [2] of 0.28 µM and a Ki [3] of 2.51 µM.

In the case of CNC(=O)C1CCN(C(=O)[C@H](Cc2cccc(C(=N)N)c2)NS(=O)(=O)c2ccc3ccccc3c2)CC1, the Ki [1] is reported as 76 µM, the Ki [2] is reported as 0.16 µM and the Ki [3] is reported as 0.16 µM.

Work on CNC(=O)[C@H](Cc1cccc(C(=N)N)c1)NS(=O)(=O)c1ccc(C)cc1 yielded a Ki [1] of 40 µM, a Ki [2] of 18 µM and a Ki [3] of 46 µM.

Work on CNC(=O)[C@H](Cc1cccc(C(=N)N)c1)NS(=O)(=O)c1c(C(C)C)cc(C(C)C)cc1C(C)C yielded a Ki [1] of 11 µM, a Ki [2] of 3.8 µM and a Ki [3] of 26 µM.

With N=C(N)c1cccc(C[C@H](NS(=O)(=O)c2ccc3ccccc3c2)C(=O)N2CCC[C@H](C(=O)OCc3ccccc3)C2)c1 the Ki [1] was 8.59 µM, the Ki [2] was 0.3 µM and the Ki [3] was 0.16 µM.

COC(=O)[C@@H]1CCCN1C(=O)[C@H](Cc1cccc(C(=N)N)c1)NS(=O)(=O)c1ccc2ccccc2c1 gave a Ki [1] of 110 µM, a Ki [2] of 0.661 µM and a Ki [3] of 8.09 µM.

Molecule N=C(N)c1cccc(C[C@H](NS(=O)(=O)c2ccc3ccccc3c2)C(=O)OCc2ccccc2)c1 has a Ki [1] of 2.2 µM, a Ki [2] of 0.042 µM and a Ki [3] of 0.52 µM.

N=C(N)c1cccc(C[C@H](NS(=O)(=O)c2ccc3ccccc3c2)C(=O)N2CCC(C(=O)OC3CCCCC3)CC2)c1 was tested, and the Ki [1] was 7.6 µM, the Ki [2] was 2.1 µM and the Ki [3] was 0.08 µM.

Work on N=C(N)c1cccc(C[C@H](NS(=O)(=O)c2ccc3ccccc3c2)C(=O)N2CCCCCCC2)c1 yielded a Ki [1] of 22 µM, a Ki [2] of 0.03 µM and a Ki [3] of 0.61 µM.

N=C(N)c1cccc(C[C@H](NS(=O)(=O)c2ccc3ccccc3c2)C(=O)N2CCCC2)c1 gave a Ki [1] of 50 µM, a Ki [2] of 0.052 µM and a Ki [3] of 0.437 µM.

CC(C)c1cc(C(C)C)c(S(=O)(=O)N[C@@H](Cc2cccc(C(=N)N)c2)C(=O)N2CCC[C@H](C(=O)NCc3ccccc3)C2)c(C(C)C)c1 gave a Ki [1] of 2.51 µM, a Ki [2] of 1.8 µM and a Ki [3] of 0.46 µM.

Molecule COC(=O)C1CCN(C(=O)[C@H](Cc2cccc(C(=N)N)c2)NS(=O)(=O)c2c(C)cc(C)cc2C)CC1 has a Ki [1] of 83.2 µM, a Ki [2] of 0.18 µM and a Ki [3] of 0.991 µM.

CN(C)c1cccc2c(S(=O)(=O)N[C@@H](Cc3cccc(C(=N)N)c3)C(=O)N3CCN(S(C)(=O)=O)CC3)cccc12 gave a Ki [1] of 3.89 µM, a Ki [2] of 0.00417 µM and a Ki [3] of 0.17 µM.

In the case of CN(C)C(=O)N1CCN(C(=O)[C@H](Cc2cccc(C(=N)N)c2)NS(=O)(=O)c2ccc3ccccc3c2)CC1, the Ki [1] is reported as 24 µM, the Ki [2] is reported as 0.00871 µM and the Ki [3] is reported as 0.17 µM.

Molecule CN1CCN(C(=O)[C@H](Cc2cccc(C(=N)N)c2)NS(=O)(=O)c2ccc3ccccc3c2)CC1 has a Ki [1] of 30 µM, a Ki [2] of 0.036 µM and a Ki [3] of 1.3 µM.

With CC(C)OC(=O)C1CCN(C(=O)[C@H](Cc2cccc(C(=N)N)c2)NS(=O)(=O)c2ccc3ccccc3c2)CC1 the Ki [1] was 25.1 µM, the Ki [2] was 0.71 µM and the Ki [3] was 0.023 µM.

Molecule CCCCOC(=O)[C@H](Cc1cccc(C(=N)N)c1)NS(=O)(=O)c1ccc2ccccc2c1 has a Ki [1] of 3.1 µM, a Ki [2] of 0.013 µM and a Ki [3] of 0.26 µM.

Molecule CNC(=O)[C@H]1CCCN(C(=O)[C@H](Cc2cccc(C(=N)N)c2)NS(=O)(=O)c2c(C(C)C)cc(C(C)C)cc2C(C)C)C1 has a Ki [1] of 1.51 µM, a Ki [2] of 0.23 µM and a Ki [3] of 0.794 µM.

COC(=O)C1CCN(C(=O)[C@H](Cc2cccc(C(=N)N)c2)NS(=O)(=O)c2ccc3ccccc3c2)CC1 showed a Ki [1] of 42.7 µM, a Ki [2] of 0.017 µM and a Ki [3] of 0.036 µM.

N=C(N)c1cccc(C[C@H](NS(=O)(=O)c2ccc3ccccc3c2)C(=O)N2CCN(C(=O)CO)CC2)c1 gave a Ki [1] of 35 µM, a Ki [2] of 0.0579 µM and a Ki [3] of 1.1 µM.

Molecule CC(C)OC(=O)[C@H](Cc1cccc(C(=N)N)c1)NS(=O)(=O)c1ccc2ccccc2c1 has a Ki [1] of 3.5 µM, a Ki [2] of 0.11 µM and a Ki [3] of 1.41 µM.

CC(C)c1cc(C(C)C)c(S(=O)(=O)N[C@@H](Cc2cccc(C(=N)N)c2)C(=O)N2CCN(S(C)(=O)=O)CC2)c(C(C)C)c1 showed a Ki [1] of 7.4 µM, a Ki [2] of 0.28 µM and a Ki [3] of 0.979 µM.

For N=C(N)c1cccc(C[C@H](NS(=O)(=O)c2ccc3ccccc3c2)C(=O)N2CCC[C@H]2C(=O)OCc2ccccc2)c1, the Ki [1] was 20 µM, the Ki [2] was 0.631 µM and the Ki [3] was 1 µM.

COC(=O)[C@H]1[C@@H](C)CCCN1C(=O)[C@H](Cc1cccc(C(=N)N)c1)NS(=O)(=O)c1ccc2ccccc2c1 gave a Ki [1] of 36 µM, a Ki [2] of 0.52 µM and a Ki [3] of 1.8 µM.

With Cc1ccc(S(=O)(=O)N[C@@H](Cc2cccc(C(=N)N)c2)C(=O)N2CCOCC2)cc1 the Ki [1] was 52 µM, the Ki [2] was 0.17 µM and the Ki [3] was 0.71 µM.

Molecule N=C(N)c1cccc(C[C@H](NS(=O)(=O)c2ccc3ccccc3c2)C(=O)N2CCN(c3ccccc3)CC2)c1 has a Ki [1] of 27 µM, a Ki [2] of 0.52 µM and a Ki [3] of 0.027 µM.

Molecule CC1CCN(C(=O)[C@H](Cc2cccc(C(=N)N)c2)NS(=O)(=O)C[C@]23CC[C@H](CC2=O)C3(C)C)CC1 has a Ki [1] of 14.1 µM, a Ki [2] of 0.0141 µM and a Ki [3] of 0.631 µM.

For COC(=O)[C@H]1C[C@H](C)CCN1C(=O)[C@H](Cc1cccc(C(=N)N)c1)NS(=O)(=O)c1ccc2ccccc2c1, the Ki [1] was […], the Ki [2] was 0.0959 µM and the Ki [3] was 2.2 µM.

In the case of N=C(N)c1cccc(C[C@H](NS(=O)(=O)c2ccc3ccccc3c2)C(=O)N2CCC(C(=O)OCc3ccccc3)CC2)c1, the Ki [1] is reported as 8.09 µM, the Ki [2] is reported as 0.21 µM and the Ki [3] is reported as 0.067 µM.

With CC1CCN(C(=O)[C@H](Cc2cccc(C(=N)N)c2)NS(=O)(=O)c2cccc3ccccc23)CC1 the Ki [1] was 42 µM, the Ki [2] was 0.016 µM and the Ki [3] was 0.631 µM.

Molecule N=C(N)c1cccc(C[C@H](NS(=O)(=O)c2ccc3ccccc3c2)C(=O)N2Cc3ccccc3C[C@@H]2C(=O)OCc2ccccc2)c1 has a Ki [1] of 7.76 µM, a Ki [2] of 0.69 µM and a Ki [3] of 1.2 µM.

COc1cc(C)c(S(=O)(=O)N[C@@H](Cc2cccc(C(=N)N)c2)C(=O)N2CCN(S(C)(=O)=O)CC2)c(C)c1C was tested, and the Ki [1] was 120 µM, the Ki [2] was 0.032 µM and the Ki [3] was 1.8 µM.

With COC(=O)[C@H]1CCCCN1C(=O)[C@H](Cc1cccc(C(=N)N)c1)NS(=O)(=O)c1ccc2ccccc2c1 the Ki [1] was 46 µM, the Ki [2] was 0.0692 µM and the Ki [3] was 1.9 µM.

With COC(=O)[C@H]1CCC[C@H](C)N1C(=O)[C@H](Cc1cccc(C(=N)N)c1)NS(=O)(=O)c1ccc2ccccc2c1 the Ki [1] was 3.2 µM, the Ki [2] was 0.42 µM and the Ki [3] was 2.1 µM.

CNC(=O)[C@H](Cc1cccc(C(=N)N)c1)NS(=O)(=O)c1ccc2ccccc2c1 showed a Ki [1] of 26 µM, a Ki [2] of 5.7 µM and a Ki [3] of 25.1 µM.

In the case of CCCCNC(=O)[C@H](Cc1cccc(C(=N)N)c1)NS(=O)(=O)c1ccc2ccccc2c1, the Ki [1] is reported as 46.8 µM, the Ki [2] is reported as 0.12 µM and the Ki [3] is reported as 4 µM.
